Settings: for surface tension liquid-gas: Ring tensiometer; for viscosity / mass density: 101.33 kPa, Liquid; for viscosity: Capillary tube (Ostwald / Ubbelohde) method; for mass density: Pycnometric method

CCCC[n+]1ccc(C)cc1.O=S(=O)([N-]S(=O)(=O)C(F)(F)F)C(F)(F)F
Settings | mass density [kg/m3] | surface tension liquid-gas [mN/m] | viscosity [mPa·s]
293.15 K | 1419 | 35.4 | 65.26
298.15 K | 1413 | 35 | 54.41
303.15 K | 1412 | 34.7 | 44.42
308.15 K | 1411 | 34.5 | 36.12
313.15 K | 1410 | 34.2 | 29.81
318.15 K | 1409 | 34 | 25.18
323.15 K | 1405 | 33.8 | 20.23

CCCC[n+]1cccc(C)c1.O=S(=O)([N-]S(=O)(=O)C(F)(F)F)C(F)(F)F
Settings | mass density [kg/m3] | surface tension liquid-gas [mN/m] | viscosity [mPa·s]
293.15 K | 1429 | 35.8 | 81.71
298.15 K | 1425 | 35.5 | 64.73
303.15 K | 1423 | 35.3 | 51.42
308.15 K | 1421 | 35.1 | 41.73
313.15 K | 1420 | 34.8 | 33.98
318.15 K | 1419 | 34.6 | 29.05
323.15 K | 1416 | 34.4 | 25.68

CCCC[n+]1ccccc1C.O=S(=O)([N-]S(=O)(=O)C(F)(F)F)C(F)(F)F
Settings | mass density [kg/m3] | surface tension liquid-gas [mN/m] | viscosity [mPa·s]
293.15 K | 1482 | 36.5 | 143.91
298.15 K | 1476 | 36.3 | 95.73
303.15 K | 1459 | 36.1 | 72.05
308.15 K | 1450 | 35.9 | 56.95
313.15 K | 1446 | 35.5 | 45.83
318.15 K | 1440 | 35.2 | 37.39
323.15 K | 1435 | 35 | 29.48

CCCC[n+]1cccc(C)c1.F[B-](F)(F)F [1-butyl-3-methylpyridinium tetrafluoroborate]
Settings | mass density [kg/m3] | surface tension liquid-gas [mN/m] | viscosity [mPa·s]
293.15 K | 1189 | 47.5 | 226.15
298.15 K | 1177 | 47.1 | 169.51
303.15 K | 1172 | 45.8 | 129.06
308.15 K | 1168 | 45.6 | 97.03
313.15 K | 1166 | 45.3 | 73.35
318.15 K | 1163 | 44.9 | 59.05
323.15 K | 1160 | 44.4 | 46.59

CCCC[n+]1cccc(C)c1.O=S(=O)([O-])C(F)(F)F [1-butyl-3-methylpyridinium trifluoromethanesulfonate]
Settings | mass density [kg/m3] | surface tension liquid-gas [mN/m] | viscosity [mPa·s]
293.15 K | 1306 | 38.6 | 142.15
298.15 K | 1297 | 38.2 | 126.57
303.15 K | 1291 | 37.5 | 101.27
308.15 K | 1285 | 37.1 | 78.04
313.15 K | 1275 | 36.9 | 60.98
318.15 K | 1270 | 36.6 | 48.9
323.15 K | 1251 | 36.2 | 37.94

CCCC[n+]1ccccc1.O=S(=O)([N-]S(=O)(=O)C(F)(F)F)C(F)(F)F [1-butylpyridinium bis[(trifluoromethyl)sulfonyl]imide]
Settings | mass density [kg/m3] | surface tension liquid-gas [mN/m] | viscosity [mPa·s]
293.15 K | 1462 | 35 | 75.61
298.15 K | 1456 | 34.8 | 60.55
303.15 K | 1445 | 34.5 | 48.11
308.15 K | 1441 | 34.4 | 38.08
313.15 K | 1439 | 34.3 | 32.37
318.15 K | 1437 | 34.2 | 27.62
323.15 K | 1433 | 34.1 | 22.75

CC[n+]1ccccc1.O=S(=O)([N-]S(=O)(=O)C(F)(F)F)C(F)(F)F [1-ethylpyridinium bis[(trifluoromethyl)sulfonyl]imide]
Settings | mass density [kg/m3] | surface tension liquid-gas [mN/m] | viscosity [mPa·s]
293.15 K | 1534 | 35.6 | 47.43
298.15 K | 1532 | 35.5 | 39.76
303.15 K | 1530 | 35.4 | 33.31
308.15 K | 1528 | 35.3 | 27.8
313.15 K | 1520 | 35.2 | 23.39
318.15 K | 1519 | 35.2 | 20.2
323.15 K | 1515 | 35.1 | 17.61

CCCCCC[n+]1ccccc1.O=S(=O)([N-]S(=O)(=O)C(F)(F)F)C(F)(F)F [1-hexylpyridinium bis(trifluromethylsulfonyl)imide]
Settings | mass density [kg/m3] | surface tension liquid-gas [mN/m] | viscosity [mPa·s]
293.15 K | 1386 | 34.2 | 275.12
298.15 K | 1382 | 33.9 | 245.33
303.15 K | 1379 | 33.5 | 201.82
308.15 K | 1373 | 33.3 | 153.24
313.15 K | 1368 | 33 | 131.32
318.15 K | 1368 | 32.8 | 105.99
323.15 K | 1362 | 32.6 | 83.66

Reference: the NIST ThermoML archive (doi:10.1016/j.jct.2012.06.018)
